In PMC4937332 (2016):

Tested on: T8A7 (in solution, with anchor) (RNA, riboswitch) GGGGAACAAACAUUCAAAAUAAUAACACAAGAUAUGAGCGAAUGACAGCAAGGGGAGAGACCUGACCGAAAACCUCGGGAUACAGGCGCCGAAGGAGCAAACUGCGGAGUGAAUCUCUCAGGCAAAAGAACUCUUGCUCGACGCAACUCUGGAGAGUGUUUGUGCGGAUGCGCAAACCACCAAAGGGGACGUCUUUGCGUAUGCAAAGUAAACUUUCAGGUGCCAGGACAGAGAAGAAGGACGGGUCCAGCUGCUUCGGCAGCUGUUGAGUAGAGUGUGAGCUUCUCU
Assay: in-solution fluorescence titration, Spinach/DFHBI-1T turn-off
Conditions: 125 mM K+, 20 mM Mg2+; apparent; 50 mM Tris pH 8.31, 20 µM DFHBI-1T

NCC(=O)O
KD: 71 ± 4 µM
